Values quoted from earlier work, collected in patent US10813957B2, “Engineered oncolytic viruses containing hyper-binding sites to sequester and suppress activity of oncogenic transcription factors as a novel treatment for human cancer” (priority 2016, dated 2020).

Settings: background statement

For `NC(=O)OC[C@H]1c2c(O)cc(C=O)cc2N2CC3N[C@@H]3[C@]1(O)O2` (stereo partly shown) [FR900482], the toxicity in humans is listed as “high toxicity”.
